Measurements as given in patent US9096565B2, “Inhibitors of histone deacetylase” (MethylGene Inc., priority 2007, dated 2015).

Biological target: one or more of HDAC-4, HDAC-5, HDAC-6, HDAC-7, HDAC-8, HDAC-9, HDAC-10 and HDAC-11
Test: Inhibition of histone deacetylase enzymatic activity (summary statement over isoforms)
Type: biochemical
Settings: Table 3, selected examples; HDAC isoform not given
In short: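 HDAC enzyme mix with compound was preincubated 5 min at room temperature. Reaction was started at 37 °C with Boc-Lys(trifluoroacetyl)-AMC substrate and run 20-30 min. It was stopped with trypsin (1 mg/mL) plus a known HDAC inhibitor to release the fluorogenic AMC.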

| Compound | IC50 [nM] |
| --- | --- |
| O=C(NO)C(Sc1ncccn1)c1ccccc1 (stereo not shown) [Compound 6-29, N-hydroxy-2-phenyl-2-(pyrimidin-2-ylthio)acetamide] | 1000 to 15000 |
| CCN(CC)c1ccc(C(C(=O)NO)c2cccc(F)c2)cc1 (stereo not shown) [Compound 6-37] | < 1000 |
| O=C(NO)C(Sc1cccc(O)c1)c1ccccc1 (stereo not shown) [Compound 6-38, N-hydroxy-2-(3-hydroxyphenylthio)-2-phenylacetamide] | 1000 to 15000 |
| O=C(NO)C(c1ccccc1)c1ccc(N2CCC2)cc1 (stereo not shown) [Compound 6-39, 2-(4-(azetidin-1-yl)phenyl)-N-hydroxy-2-phenylacetamide] | < 1000 |
| CN(CCc1ccccc1)c1ccc(C(C(=O)NO)c2ccccc2)cc1 (stereo not shown) [Compound 6-40, N-hydroxy-2-(4-(methyl(phenethyl)amino)phenyl)-2-phenylacetamide] | < 1000 |
| COc1ccc(-c2ccnc(SC(C(=O)NO)c3ccccc3)n2)cc1 (stereo not shown) [Compound 6-42, N-hydroxy-2-(4-(4-methoxyphenyl)pyrimidin-2-ylthio)-2-phenylacetamide] | 1000 to 15000 |
| CCN(CCN(C)C)c1ccc(C(C(=O)NO)c2ccccc2)cc1 (stereo not shown) [Compound 6-43] | < 1000 |
| Cn1cc(C2CCN(C(C(=O)NO)c3ccccc3)CC2)c2ccccc21 (stereo not shown) [Compound 6-45, N-hydroxy-2-(4-(1-methyl-1H-indol-3-yl)piperidin-1-yl)-2-phenylacetamide] | < 1000 |
| CCN(CCOC)c1ccc(C(C(=O)NO)c2ccccc2)cc1 (stereo not shown) [Compound 6-46, 2-(4-(ethyl(2-methoxyethyl)amino)phenyl)-N-hydroxy-2-phenylacetamide] | < 1000 |

More lines, now with the values ahead:

| IC50 [nM] | Compound |
| --- | --- |
| 1000 to 15000 | Cc1ccccc1OC(C(=O)NO)c1ccccc1 (stereo not shown) [Compound 7-1, N-hydroxy-2-phenyl-2-(o-tolyloxy)acetamide] |
| 1000 to 15000 | Cc1cccc(OC(C(=O)NO)c2ccccc2)c1 (stereo not shown) [Compound 7-2, N-hydroxy-2-phenyl-2-(m-tolyloxy)acetamide] |
| 1000 to 15000 | O=C(NO)C(Oc1ccccc1F)c1ccccc1 (stereo not shown) [Compound 7-5, 2-(2-fluorophenoxy)-N-hydroxy-2-phenylacetamide] |
| 1000 to 15000 | COc1ccc(OC(C(=O)NO)c2ccccc2)cc1 (stereo not shown) [Compound 7-11, N-hydroxy-2-(4-methoxyphenoxy)-2-phenylacetamide] |
| 1000 to 15000 | O=C(NO)C(Oc1ccc2c(c1)OCO2)c1ccccc1 (stereo not shown) [Compound 7-17, 2-(benzo[d][1,3]dioxol-5-yloxy)-N-hydroxy-2-phenylacetamide] |
| 1000 to 15000 | CSc1ccc(OC(C(=O)NO)c2ccccc2)cc1 (stereo not shown) [Compound 7-18, N-hydroxy-2-(4-(methylthio)phenoxy)-2-phenylacetamide] |
| 1000 to 15000 | Cc1ccc(OC(C(=O)NO)c2ccccc2)c(Cl)c1 (stereo not shown) [Compound 7-20, 2-(2-chloro-4-methylphenoxy)-N-hydroxy-2-phenylacetamide] |
| < 1000 | O=C(NO)C(Oc1cccc2ccccc12)c1ccccc1 (stereo not shown) [Compound 7-31, N-hydroxy-2-(naphthalen-1-yloxy)-2-phenylacetamide] |
| 1000 to 15000 | O=C(NO)C(Oc1ccc(F)cc1Cl)c1ccccc1 (stereo not shown) [Compound 7-33, 2-(2-chloro-4-fluorophenoxy)-N-hydroxy-2-phenylacetamide] |
| 1000 to 15000 | O=C(NO)C(Oc1ccc(F)c(Cl)c1)c1ccccc1 (stereo not shown) [Compound 7-34, 2-(3-chloro-4-fluorophenoxy)-N-hydroxy-2-phenylacetamide] |
| 1000 to 15000 | Cc1ccc(OC(C(=O)NO)c2ccccc2)c2c1CCC2 (stereo not shown) [Compound 7-35, N-hydroxy-2-(7-methyl-2,3-dihydro-1H-inden-4-yloxy)-2-phenylacetamide] |
| 1000 to 15000 | O=C(NO)C(Oc1ccc2c(c1)CCCC2)c1ccccc1 (stereo not shown) [Compound 7-36, N-hydroxy-2-phenyl-2-(5,6,7,8-tetrahydronaphthalen-2-yloxy)acetamide] |
| 1000 to 15000 | CC(C)(C)c1ccc(OC(C(=O)NO)c2ccccc2)cc1 (stereo not shown) [Compound 7-37, 2-(4-tert-butylphenoxy)-N-hydroxy-2-phenylacetamide] |
| 1000 to 15000 | CCCOc1ccc(OC(C(=O)NO)c2ccccc2)cc1 (stereo not shown) [Compound 7-41, N-hydroxy-2-phenyl-2-(4-propoxyphenoxy)acetamide] |
| 1000 to 15000 | COc1ccc(OC(C(=O)NO)c2ccccc2)cc1OC (stereo not shown) [Compound 7-42, 2-(3,4-dimethoxyphenoxy)-N-hydroxy-2-phenylacetamide] |
| 1000 to 15000 | O=C(NO)C(Oc1ccc(C(F)(F)F)cc1)c1ccccc1 (stereo not shown) [Compound 7-44, N-hydroxy-2-phenyl-2-(4-(trifluoromethyl)phenoxy)acetamide] |
